{
  "source": "paper PMC10562414",
  "about": "“GLP-1R signaling neighborhoods associate with the susceptibility to adverse drug reactions of incretin mimetics” (Nature Communications, 2023)",
  "key": {"[1]": {"molecular_target": "GLP-1R (Homo sapiens, UniProt P43220)", "sequence (P43220 24-463)": "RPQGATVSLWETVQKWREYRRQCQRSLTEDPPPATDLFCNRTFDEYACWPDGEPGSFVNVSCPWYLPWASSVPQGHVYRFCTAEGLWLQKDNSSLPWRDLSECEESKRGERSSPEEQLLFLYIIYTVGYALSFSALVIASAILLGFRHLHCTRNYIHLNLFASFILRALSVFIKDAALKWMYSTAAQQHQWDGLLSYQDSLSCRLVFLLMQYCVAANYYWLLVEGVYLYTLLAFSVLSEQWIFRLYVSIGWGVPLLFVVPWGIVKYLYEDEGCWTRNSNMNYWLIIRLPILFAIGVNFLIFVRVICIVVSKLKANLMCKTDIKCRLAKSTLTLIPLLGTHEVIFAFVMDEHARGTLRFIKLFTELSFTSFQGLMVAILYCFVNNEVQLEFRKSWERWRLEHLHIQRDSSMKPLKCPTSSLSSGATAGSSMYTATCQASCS", "test": "ebBRET pathway activation (effector membrane translocation, 15 pathways) at the plasma membrane (rGFP-CAAX)", "assay_type": "cell-based", "conditions": "plasma membrane rGFP-CAAX, HEK293, agonist incubation 0 min, normalized to the highest responding drug, F test P < 0.00625, n=3-6"}, "[2]": {"test": "Adverse drug event analysis (FAERS, log likelihood ratio)", "conditions": "Supplementary Fig. 21; for proportion, Pancreatic disease: ADR_TERM Pancreatic disease"}},
  "data": [
    {"smiles": "CC[C@H](C)[C@H](NC(=O)[C@H](Cc1ccccc1)NC(=O)[C@H](CCC(=O)O)NC(=O)[C@H](CCCCN)NC(=O)[C@H](C)NC(=O)[C@H](C)NC(=O)[C@H](CCC(N)=O)NC(=O)CNC(=O)[C@H](CCC(=O)O)NC(=O)[C@H](CC(C)C)NC(=O)[C@H](Cc1ccc(O)cc1)NC(=O)[C@H](CO)NC(=O)[C@H](CO)NC(=O)[C@@H](NC(=O)[C@H](CC(=O)O)NC(=O)[C@H](CO)NC(=O)[C@@H](NC(=O)[C@H](Cc1ccccc1)NC(=O)[C@@H](NC(=O)CNC(=O)[C@H](CCC(=O)O)NC(=O)[C@H](C)NC(=O)[C@H](Cc1c[nH]cn1)NC(=O)[C@H](CCCNC(=N)N)NC(=O)[C@H](CCC(=O)O)NC(=O)[C@H](Cc1ccccc1)NC(=O)[C@H](CCC(=O)O)NC(=O)[C@H](CC(=O)O)NC(=O)[C@@H](N)Cc1c[nH]cn1)[C@@H](C)O)[C@@H](C)O)C(C)C)C(=O)N[C@@H](C)C(=O)N[C@@H](Cc1c[nH]c2ccccc12)C(=O)N[C@@H](CC(C)C)C(=O)N[C@H](C(=O)N[C@@H](CCCCN)C(=O)NCC(=O)N[C@@H](CCCNC(=N)N)C(=O)NCC(=O)O)C(C)C", "note": "[GLP-1 (1-37)]", "values": [
      {"measurement": "Efficacy (normalized), GRK2/Gβγ", "setting": "[1]; GRK2-D110A-RlucII", "value": 0},
      {"measurement": "Efficacy (normalized), Gα13", "setting": "[1]; PDZRhoGEF-RlucII", "value": 0},
      {"measurement": "Efficacy (normalized), Gαi1", "setting": "[1]; Rap1Gap-RlucII", "value": 0},
      {"measurement": "Efficacy (normalized), Gαi2", "setting": "[1]; Rap1Gap-RlucII", "value": 0},
      {"measurement": "Efficacy (normalized), Gαi3", "setting": "[1]; Rap1Gap-RlucII", "value": 0},
      {"measurement": "Efficacy (normalized), GαoA", "setting": "[1]; Rap1Gap-RlucII", "value": 0},
      {"measurement": "Efficacy (normalized), GαoB", "setting": "[1]; Rap1Gap-RlucII", "value": 0},
      {"measurement": "Efficacy (normalized), Gαz", "setting": "[1]; Rap1Gap-RlucII", "value": 0},
      {"measurement": "Efficacy (normalized), Gαs", "setting": "[1]; Rluc8-mGs", "value": 0},
      {"measurement": "Efficacy (normalized), Gα11", "setting": "[1]; p63RhoGEF-RlucII", "value": 0},
      {"measurement": "Efficacy (normalized), Gα14", "setting": "[1]; p63RhoGEF-RlucII", "value": 0},
      {"measurement": "Efficacy (normalized), Gα15", "setting": "[1]; p63RhoGEF-RlucII", "value": 0},
      {"measurement": "Efficacy (normalized), Gαq", "setting": "[1]; p63RhoGEF-RlucII", "value": 0},
      {"measurement": "Efficacy (normalized), βARR2", "setting": "[1]; β-arrestin-2-RlucII", "value": 0}
    ]},
    {"smiles": "CCCCCCCCCCCCCCCC(=O)N[C@@H](CCC(=O)NCCCC[C@H](NC(=O)[C@H](C)NC(=O)[C@H](C)NC(=O)[C@H](CCC(N)=O)NC(=O)CNC(=O)[C@H](CCC(=O)O)NC(=O)[C@H](CC(C)C)NC(=O)[C@H](Cc1ccc(O)cc1)NC(=O)[C@H](CO)NC(=O)[C@H](CO)NC(=O)[C@@H](NC(=O)[C@H](CC(=O)O)NC(=O)[C@H](CO)NC(=O)[C@@H](NC(=O)[C@H](Cc1ccccc1)NC(=O)[C@@H](NC(=O)CNC(=O)[C@H](CCC(=O)O)NC(=O)[C@H](C)NC(=O)[C@@H](N)Cc1cnc[nH]1)[C@@H](C)O)[C@@H](C)O)C(C)C)C(=O)N[C@@H](CCC(=O)O)C(=O)N[C@@H](Cc1ccccc1)C(=O)N[C@H](C(=O)N[C@@H](C)C(=O)N[C@@H](Cc1c[nH]c2ccccc12)C(=O)N[C@@H](CC(C)C)C(=O)N[C@H](C(=O)N[C@@H](CCCNC(=N)N)C(=O)NCC(=O)N[C@@H](CCCNC(=N)N)C(=O)NCC(=O)O)C(C)C)[C@@H](C)CC)C(=O)O", "note": "[Liraglutide]", "values": [
      {"measurement": "proportion, Abdominal pain", "setting": "[2]; ADR_TERM Abdominal pain", "value": 0.02341},
      {"measurement": "proportion, Adenocarcinoma pancreas", "setting": "[2]; ADR_TERM Adenocarcinoma pancreas", "value": 0.01752},
      {"measurement": "proportion, Eructation", "setting": "[2]; ADR_TERM Eructation", "value": 0.03019},
      {"measurement": "proportion, Nausea", "setting": "[2]; ADR_TERM Nausea", "value": 0.07705},
      {"measurement": "proportion, Pancreatic disease", "setting": "[2]; first group", "value": 0.08817},
      {"measurement": "proportion, Pancreatic disease", "setting": "[2]; fourth group (r25-r28)", "value": 0.1539},
      {"measurement": "proportion, Pancreatic disease", "setting": "[2]; second group (r20)", "value": 0.02656},
      {"measurement": "proportion, Pancreatic disease", "setting": "[2]; third group (r21-r24)", "value": 0.5446},
      {"measurement": "proportion, Vomiting", "setting": "[2]; ADR_TERM Vomiting", "value": 0.03854}
    ]}
  ]
}
